Where a name gives a salt, the structure may show the parent alone. Read-outs that look alike come from different tables or passages of the source. Values belong to the compound of their own block, whether it stands above or below them.
Assays:
[1] = Acute toxicity in mice; settings: mouse, in vivo, dose at which 50% of the animals died
[2] = system: arterial blood pressure and dp/dt max. (left ventricle); experiment: Cardiotonic and blood pressure effects in anesthetized cats; type: in vivo, cat; settings: 2 mg/kg intravenously; for Change in blood pressure (first value of the pair printed with a slash): first of two values; for Change in blood pressure (second value of the pair printed with a slash): second of two values; for change in vivo at 2 mg/kg: Felis catus, iv, dp/dt max., index of contractility, read-out: Increase in dp/dt
Protocol: 1. Cardiotonic and blood pressure effects
Cats of both sexes with a body weight of 2 to 4 kg were anesthetized by intraperitoneal injection of 30 mgm/kg of sodium pentobarbital. The arterial blood pressure was measured by a Statham pressure transducer (P23 Dc) from the aorta abdominalis via a PVA-Catheter, which was inserted through the right arteria femoralis. The ventricle pressure was measured by a cathetertip manometer (type MILLAR PC-350), which was introduced into the left ventricle via the right arteria carotis. The indices of contractility dp/dt max. were obtained by a differentiating amplifier. The arterial blood pressure and dp/dt max. were continuously recorded by direct-writer. The test compounds were injected intravenously at 2 mg/kg.

[3] = system: chloroform-induced ventricular fibrillation; experiment: Antiarrhythmic effect against chloroform-induced ventricular fibrillation in mice; type: in vivo; settings: Mus musculus, 1 min, male mice, ventricular fibrillation prevented in 50% of animals
Protocol: 3. Antiarrhythmic effect against chloroform-induced ventricular fibrillation in mice
On placing a mouse into a chloroform-saturated atmosphere, the animal becomes anesthetized after 40 sec., the spontaneous respiration stops, and after 20 sec. more, gasping respiration sets in.
Immediately after the gasping respiration has ceased, the mouse is taken out of the chloroform atmosphere, the thorax is opened, and the heart is quickly exposed to allow inspection of the heart movement. For 1 minute after opening the thorax, spontaneous ventricular fibrillation occurs in nearly all the animals or can be induced by touching the heart with tweezers.
Pre-treatment with antiarrhythmic compounds reduces the number of animals which show fibrillation in a dose-dependent way. The dose which reduces the number of animals having fibrillations by 50% (ED50) is calculated by means of dose-response curves and the standard deviation is determined [MILLER, L. C. and TAINTER, M. L., Proc. Soc. Exp. Biol. Med. 57, 261 (1944)].
The tests were performed on male mice, body weight 20-25 gm. Each dose was tested on 10 animals.
The dose was determined, at which after i.v. and p.o. administration one minute before starting the test, the ventricular fibrillation was prevented in 50% of the animals.

[4] = system: isolated electrically stimulated left auricle of the guinea pig; experiment: Effect on the effective refractory period of the isolated electrically stimulated left auricle of the guinea pig; settings: Cavia porcellus; Tyrode's solution, 37° C.; cumulative dosing; graphically determined from dose response curves; read-out: EC50 (concentration which reduces the maximum stimulation frequency by 50%)
Protocol: 2. Effect on the effective refractory period of the isolated electrically stimulated left auricle of the guinea pig
Guinea pigs of both sexes were killed by a blow on the neck. After opening the thorax, the heart was quickly removed and transferred into a Tyrode's solution (37° C.). The auricles were separated from the ventricles along the Annulus fibrosus, and only the left auricles were used. Electrical stimulation was performed by a Grass stimulator, S4G, with square wave impulses of 1 millisecond duration and a stimulation voltage of 12 V. The auricles were suspended in Tyrode's solution at 37° C. containing 136.8 mVal NaCl, 2.68 mVal KCL, 0.2625 mVal MgCl2, 0.417 mVal NaH2 PO4, 11.9 mVal NaHCO3, 1.8 mVal CaCl, and 3 gm of glucose perliter. The solution was continuously aerated with O2 /CO2 (98%/2%). The isometric contractions were measured with a force displacement transducer and recorded on a Grass polygraph (P5). The number of the contractions was counted out and compared with the frequency indicated at the stimulator.
The maximum stimulation frequency was determined by increasing the stimulation rate every 10 seconds by 1 Hz. The maximum stimulation frequency was measured in preliminary tests by determining the average value. During the intervals of 5 minutes each between the measurements, the stimulation rate was 0.5 Hz.
After the determination of the average value the test compound was added to the Tyrode's solution and the stimulation rate was maintained at 0.5 Hz. During the first 5 minutes the inotropic effect of the compound was observed. Measurements were performed every 5 and 10 minutes after addition of the test compound. The average value resulting from the two tests (value at 5 minutes and 10 minutes, respectively) was taken as the maximum stimulation frequency after addition of the test compound. At first small doses were given, and after determination of the maximum stimulation frequency the dose was increased cumulatively and the maximum stimulation frequency for that dose was measured.
The maximum stimulation frequency is measured by increasing the stimulation rate. When the interval between two stimuli is shortened, a stimulation rate is reached at which every second stimulation falls into the refractory period of the foregoing contraction and will not be answered with a contraction. So, the maximum stimulation frequency is a measure of the effective refractory period. Compounds which reduce the maximum stimulation frequency, prolong the refractory period.
From the dose response curves the concentrations which reduce the maximum stimulation frequency by 50%, were graphically determined: […]

[5] = po, read-out: Toxicity (LD50) p.o.
[6] = iv, i.v. one minute before test, read-out: ED50 i.v.
[7] = po, p.o. one minute before test, read-out: ED50 p.o.

SMILES: CC1(C)C(=O)NC(=O)c2c1ccc1nc(C3CCCCC3)[nH]c21 [F]
- LD50 [1, 5]: > 300 mg/kg
- Duration [2]: > 42 min
- Change in blood pressure (first value of the pair printed with a slash) [2]: -23 mm Hg
- Change in blood pressure (second value of the pair printed with a slash) [2]: -40 mm Hg

- EC50 [4]: 1.8 µg/mL
SMILES: CCN(CC)CCN1C(=O)c2c(ccc3nc(-c4ccccc4)[nH]c23)C(C)(C)C1=O [N, 7,7-Dimethyl-2-phenyl-5-(2-diethylamino-ethyl)-5H,7H-imidazo[4,5-h]isoquinoline-4,6-dione dihydrochloride]
- ED50 [3, 6]: 2.4 mg/kg
- ED50 [3, 7]: 21.2 mg/kg

SMILES: COc1ccc(S(C)(=O)=O)cc1-c1nc2ccc3c(c2[nH]1)C(=O)NC(=O)C3(C)C [K, 7,7-Dimethyl-2-(2-methoxy-5-methylsulfonyl-phenyl)-5H,7H-imidazo[4,5-h]isoquinoline-4,6-dione]
- LD50 [1, 5]: > 300 mg/kg
- Duration [2]: > 107 min
- Change in blood pressure (first value of the pair printed with a slash) [2]: -70 mm Hg
- Change in blood pressure (second value of the pair printed with a slash) [2]: -67 mm Hg
- change in vivo at 2 mg/kg [2]: 157%

SMILES: CC1(C)C(=O)NC(=O)c2c1ccc1nc(C3CC3)[nH]c21 [M, hydrochloride]
- Duration [2]: > 55 min
- Change in blood pressure (first value of the pair printed with a slash) [2]: -41 mm Hg
- Change in blood pressure (second value of the pair printed with a slash) [2]: -49 mm Hg
- change in vivo at 2 mg/kg [2]: 108%

- EC50 [4]: 4.8 µg/mL
SMILES: CN(C)CCN1C(=O)c2c(ccc3nc(-c4ccccc4)[nH]c23)C(C)(C)C1=O [Q, 7,7-Dimethyl-2-phenyl-5-(2-dimethylamino-ethyl)-5H,7H-imidazo[4,5-h]isoquinoline-4,6-dione-dihydrochloride]
- ED50 [3, 6]: 6.1 mg/kg
- ED50 [3, 7]: 23.5 mg/kg

SMILES: COc1ccc(-c2nc3ccc4c(c3[nH]2)C(=O)NC(=O)C4(C)C)c(OC)c1 [A, 7,7-Dimethyl-2-(2,4-dimethoxy-phenyl)-5H,7H-imidazo[4,5-h]isoquinoline-4,6-dione hydrochloride]
- Duration [2]: > 24 min
- Change in blood pressure (first value of the pair printed with a slash) [2]: -49 mm Hg
- Change in blood pressure (second value of the pair printed with a slash) [2]: -48 mm Hg

SMILES: CC1(C)C(=O)NC(=O)c2c1ccc1nc(-c3ccc(O)cc3)[nH]c21 [J, 7,7-Dimethyl-2-(4-hydroxy-phenyl)-5H,7H-imidazo[4,5-h]isoquinoline-4,6-dione hydrochloride]
- Duration [2]: > 29 min
- Change in blood pressure (first value of the pair printed with a slash) [2]: -47 mm Hg
- Change in blood pressure (second value of the pair printed with a slash) [2]: -58 mm Hg

SMILES: CC1(C)C(=O)NC(=O)c2c1ccc1nc(-c3ccc(Cl)cc3)[nH]c21 [G, 7,7-Dimethyl-2-(4-chloro-phenyl)-5H,7H-imidazo[4,5-h]isoquinoline-4,6-dione hydrochloride]
- Duration [2]: 9 min
- Change in blood pressure (first value of the pair printed with a slash) [2]: -40 mm Hg
- Change in blood pressure (second value of the pair printed with a slash) [2]: -30 mm Hg

- EC50 [4]: 6.7 µg/mL
SMILES: CC1(C)C(=O)N(CCCN2CCCCC2)C(=O)c2c1ccc1nc(-c3ccccc3)[nH]c21 [P, 7,7-Dimethyl-2-phenyl-5-(3-piperidino-propyl)-5H,7H-imidazo[4,5-h]isoquinoline-4,6-dione dihydrochloride]
- ED50 [3, 6]: 10.5 mg/kg
- ED50 [3, 7]: 130 mg/kg

SMILES: COc1ccccc1-c1nc2ccc3c(c2[nH]1)C(=O)NC(=O)C3(C)C [Compound E, 7,7-Dimethyl-2-(2-methoxy-phenyl)-5H,7H-imidazo[4,5-h]isoquinoline-4,6-dione hydrochloride]
- Duration [2]: 12 min
- Change in blood pressure (first value of the pair printed with a slash) [2]: -46 mm Hg
- Change in blood pressure (second value of the pair printed with a slash) [2]: -63 mm Hg

SMILES: CSc1ccc(-c2nc3ccc4c(c3[nH]2)C(=O)NC(=O)C4(C)C)cc1 [H, 7,7-Dimethyl-2-(4-methylmercapto-phenyl)-5H,7H-imidazo[4,5-h]isoquinoline-4,6-dione]
- Duration [2]: > 12 min
- Change in blood pressure (first value of the pair printed with a slash) [2]: -45 mm Hg
- Change in blood pressure (second value of the pair printed with a slash) [2]: -45 mm Hg

SMILES: COc1ccc([S+](C)[O-])cc1-c1nc2ccc3c(c2[nH]1)C(=O)NC(=O)C3(C)C (centres unmarked) [L, 7,7-Dimethyl-2-(2-methoxy-5-methylsulfinyl-phenyl)-5H,7H-imidazo[4,6-h]isoquinoline-4,6-dione hydrochloride]
- Duration [2]: > 70 min
- Change in blood pressure (first value of the pair printed with a slash) [2]: -42 mm Hg
- Change in blood pressure (second value of the pair printed with a slash) [2]: -53 mm Hg

SMILES: COc1ccc(-c2nc3ccc4c(c3[nH]2)C(=O)NC(=O)C4(C)C)cc1 [I, 7,7-Dimethyl-2-(4-methoxy-phenyl)-5H,7H-imidazo[4,5-h]isoquinoline-4,6-dione hydrochloride]
- Duration [2]: > 19 min
- Change in blood pressure (first value of the pair printed with a slash) [2]: -33 mm Hg
- Change in blood pressure (second value of the pair printed with a slash) [2]: -46 mm Hg

SMILES: CC1(C)C(=O)NC(=O)c2c1ccc1nc(Cc3ccccc3)[nH]c21 [D, 7,7-Dimethyl-2-benzyl-5H,7H-imidazo[4,5-h]isoquinoline-4,6-dione]
- LD50 [1, 5]: > 300 mg/kg
- Duration [2]: > 57 min
- Change in blood pressure (first value of the pair printed with a slash) [2]: -67 mm Hg
- Change in blood pressure (second value of the pair printed with a slash) [2]: -63 mm Hg
- change in vivo at 2 mg/kg [2]: 110%

SMILES: CC1(C)C(=O)NC(=O)c2c1ccc1[nH]c(CCc3ccccc3)nc21 [C]
- Duration [2]: > 20 min
- Change in blood pressure (first value of the pair printed with a slash) [2]: -40 mm Hg
- Change in blood pressure (second value of the pair printed with a slash) [2]: -50 mm Hg

SMILES: CCN(CC)CCCN1C(=O)c2c(ccc3nc(-c4ccccc4)[nH]c23)C(C)(C)C1=O [O, 7,7-Dimethyl-2-phenyl-5-(3-diethylamino-propyl)-5H,7H-imidazo[4,5-h]isoquinoline-4,6-dione dihydrochloride]
- LD50 ([1]; ip, read-out: Toxicity (LD50) i.p.): 61 mg/kg
- LD50 [1, 5]: 92 mg/kg
- ED50 [3, 6]: 6.4 mg/kg
- ED50 [3, 7]: 29 mg/kg
- EC50 [4]: 5 µg/mL

SMILES: COc1cc(S(C)(=O)=O)ccc1-c1nc2ccc3c(c2[nH]1)C(=O)NC(=O)C3(C)C [B, 7,7-Dimethyl-2-(2-methoxy-4-methylsulfonyl-phenyl)-5H,7H-imidazo[4,5-h]isoquinoline-4,6-dione]
- Duration [2]: > 56 min
- Change in blood pressure (first value of the pair printed with a slash) [2]: -52 mm Hg
- Change in blood pressure (second value of the pair printed with a slash) [2]: -80 mm Hg
